Source: patent EP4682146A1, “COMPOSITION INCLUDING NOVEL PYRIDOINDOLE DERIVATIVE COMPOUND AS ACTIVE INGREDIENT FOR PREVENTION OR TREATMENT OF NEURODEGENERATIVE DISEASES” (Neurotarge Co., Ltd., priority 2023, dated 2024)

Molecular target: T1, Tau-Synaptogyrin3 interaction (Homo sapiens, UniProt O43761+P10636)
T1 construct: expressed in transfected cells
Assay: Cell-based split luciferase (NanoBit) protein complementary assay for Tau-Synaptogyrin3 interaction in stable cell line HEK293T-TK252-1E2
Conditions: HEK293T-TK252-1E2 cells, 48 hrs compound treatment, L/F value (luciferase activity/fluorescent intensity) compared to DMSO control
Procedure: Live cell luciferase assay: Live cell luciferase activity was measured using NanoGlo® Live Cell Assay System (Cat# N2012. Promega, WI, USA), according to manufacturer's instruction. All microplate-based measurement was performed with BioTek Synergy H1 (Agilent. CA, USA).
For producing HEK293T-TK252 stable cell line for screening, BglII-linearized pTK252 was transfected to HEK293T cells. After 24 hrs transfection, the transfected cells were cultured in the culture media containing 1 µg/ml puromycin (10 mM in DMSO, Cat# J61278/ Alfa Aesar. ThermoFisher Korea, Seoul, Korea) for 9 days. Regular media change was performed in every 3 days with fresh puromycin of indicating concentration during the whole selection period. The selected cells were trypsinized and diluted to 5 cells/ml and seeded to 4x 96 well cell culture plates (100 µl/well), and cultured with the cell culture media containing 1 µg/ml puromycin for 11 days. 18 wells that contained only GFP-positive cells were selected for expansion, and cultured with the cell culture media containing 0.1-0.2 µg/ml puromycin for 14 days. 10 clones were discarded during the expansion due to emerging of non-GFP cells, and 8 clones were validated. The selected clone (1E2) was cultured with the cell culture media containing 0.5 µg/ml puromycin for further experiments.
3 µmol of 1,728 compounds were purchased from Otava Chemicals MB (Vilniaus, Lithuania), dissolved into 300 µl DMSO (10 mM) and stored at -80°C. 4x10^4 HEK293T-TK252-1E2 cells were seeded with 100 µl of the cell culture media into 96 white well cell culture plates (Cat# 30196. SPL, Seoul, Korea), 48 hrs prior to compound treatment. For 10 µM compound treatment, 10 mM compound stock was diluted to 50 µM with the cell culture media, and 25 µl of the diluted compound was added to the designated wells of the 96 well plates. For dose-response experiments, the amount of compounds for dilution was adjusted to fit the volume indicated above. After 48 hrs compound treatment, the cells were washed once with OptiMEM and live cell luciferase activity, fluorescent intensity and fluorescence area scan was measured.
1,728 compounds were treated at 10 µM to HEK293T-TK252-1E2 cells and incubated for 48 hrs. […] Single wash step with culture media without FBS was included before measurement to discard dead cells and to remove FBS that affects luciferase assay. […] Fluorescent intensity was taken for normalization, which is expected to be proportion to the cell number at the measuring point. L/F value which is luciferase activity normalized with fluorescent intensity (L/F = Luciferase activity/ Fluorescent intensity) was calculated for all measurements and compared to L/F value of DMSO controls to calculated the size of inhibitory effect. […] Fluorescence area scan (FA) performed right after luciferase activity and fluorescent intensity measurement, to validate total remaining fluorescent cells in a well as a proxy to the cellular toxicity. FA value was in proportion to WST assay results (data not shown), and average CV of triplicates of all measurements was 0.04.
61 compounds were further tested for dose-response profile, based on inhibitory effect that was measured by L/F value (<60%) and FA-based cell viability (>90%) at 10 µM compared to DMSO control. 10 compounds were considered as hit compounds through three times of reproduction.

T1 sequence (P10636 1-441 isoform P10636-8): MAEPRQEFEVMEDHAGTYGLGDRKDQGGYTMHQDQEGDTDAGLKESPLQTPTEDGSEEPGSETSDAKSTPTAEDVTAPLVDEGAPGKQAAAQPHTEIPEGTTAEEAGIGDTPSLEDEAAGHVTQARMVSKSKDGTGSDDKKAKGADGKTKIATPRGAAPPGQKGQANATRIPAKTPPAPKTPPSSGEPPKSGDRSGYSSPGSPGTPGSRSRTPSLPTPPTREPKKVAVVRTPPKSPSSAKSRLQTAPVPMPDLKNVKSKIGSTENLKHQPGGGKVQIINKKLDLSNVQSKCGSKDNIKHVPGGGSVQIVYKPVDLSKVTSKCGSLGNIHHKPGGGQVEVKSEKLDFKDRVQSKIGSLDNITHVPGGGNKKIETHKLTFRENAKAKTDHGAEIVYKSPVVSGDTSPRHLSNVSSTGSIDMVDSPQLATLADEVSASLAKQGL
T1 sequence (O43761 whole entry): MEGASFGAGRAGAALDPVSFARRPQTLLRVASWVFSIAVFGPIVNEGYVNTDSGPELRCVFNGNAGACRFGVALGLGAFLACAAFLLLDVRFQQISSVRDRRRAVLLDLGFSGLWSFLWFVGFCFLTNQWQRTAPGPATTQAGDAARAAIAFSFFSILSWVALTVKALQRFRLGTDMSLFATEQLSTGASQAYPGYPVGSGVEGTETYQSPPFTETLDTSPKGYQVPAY

IC50 | Compound
12 to 25 µM | O=C(c1cccc(Cl)c1)N1CCc2[nH]c3ccc(-c4ccccc4)cc3c2C1 [Formula 13, (3-chlorophenyl)(8-phenyl-1,3,4,5-tetrahydro-2H-pyrido[4,3-b]indol-2-yl)methanone]
3 to 12 µM | Cc1ccc(NC(=S)N2CCc3[nH]c4ccc(-c5ccc(C)cc5)cc4c3C2)cc1 [Formula 76, N,8-di-p-tolyl-1,3,4,5-tetrahydro-2H-pyrido[4,3-b]indole-2-carbothioamide]
3 to 12 µM | O=C(c1cccnc1)N1CCc2[nH]c3ccc(-c4ccccc4)cc3c2C1 [Formula 2, (8-phenyl-1,3,4,5-tetrahydro-2H-pyrido[4,3-b]indol-2-yl)(pyridin-3-yl)methanone]
< 3 µM | N#Cc1ccc(-c2ccc3[nH]c4c(c3c2)CN(C(=O)c2ccccc2)CC4)cc1 [Formula 50]
3 to 12 µM | Cc1cncc(C(=O)N2CCc3[nH]c4ccc(-c5ccccc5)cc4c3C2)c1 [Formula 4, (5-methylpyridin-3-yl)(8-phenyl-1,3,4,5-tetrahydro-2H-pyrido[4,3-b]indol-2-yl)methanone]
3 to 12 µM | Cc1ccccc1-c1ccc2[nH]c3c(c2c1)CN(C(=O)c1ccccc1)CC3 [Formula 23, Phenyl(8-(o-tolyl)-1,3,4,5-tetrahydro-2H-pyrido[4,3-b]indol-2-yl)methanone]
3 to 12 µM | O=C(c1cncnc1)N1CCc2[nH]c3ccc(-c4ccccc4)cc3c2C1 [Formula 8, (8-phenyl-1,3,4,5-tetrahydro-2H-pyrido[4,3-b]indol-2-yl)(pyrimidin-5-yl)methanone]
12 to 25 µM | Cc1ccc(-c2ccc3[nH]c4c(c3c2)CN(C(=O)c2cccc(C)c2)CC4)cc1 [Formula 38, m-Tolyl(8-(p-Tolyl)-1,3,4,5-tetrahydro-2H-pyrido[4,3-b]indol-2-yl)methanone]
3 to 12 µM | Cc1ccc2[nH]c3c(c2c1)CN(C(=O)c1ccccc1)CC3 [Formula 68, (8-methyl-1,3,4,5-tetrahydro-2H-pyrido[4,3-b]indol-2-yl)(phenyl)methanone]
3 to 12 µM | Cc1ccc(C(=O)N2CCc3[nH]c4ccc(-c5ccc(C#N)cc5)cc4c3C2)cn1 [Formula 54]
3 to 12 µM | N#Cc1cccc(-c2ccc3[nH]c4c(c3c2)CN(C(=O)c2ccccc2)CC4)c1 [Formula 58, 3-(2-benzoyl-2,3,4,5-tetrahydro-1H-pyrido[4,3-b]indol-8-yl)benzonitrile]
< 3 µM | Cc1cccc(-c2ccc3[nH]c4c(c3c2)CN(C(=O)c2ccccc2)CC4)c1 [Formula 28, Phenyl(8-(m-tolyl)-1,3,4,5-tetrahydro-2H-pyrido[4,3-b]indol-2-yl)methanone]
< 3 µM | Cc1ccc(-c2ccc3c(c2)c2c(n3C)CCN(C(=O)c3cccnc3)C2)cc1 [Formula 44, (5-methyl-8-(p-tolyl)-1,3,4,5-tetrahydro-2H-pyrido[4,3-b]indol-2-yl)(pyridin-3-yl)methanone]
3 to 12 µM | CCn1c2c(c3cc(-c4ccc(C)cc4)ccc31)CN(C(=O)c1cccnc1)CC2 [Formula 46, (5-ethyl-8-(p-tolyl)-1,3,4,5-tetrahydro-2H-pyrido[4,3-b]indol-2-yl)(pyridin-3-yl)methanone]
12 to 25 µM | Cc1cnc(C(=O)N2CCc3[nH]c4ccc(-c5ccccc5)cc4c3C2)cn1 [Formula 6, (5-methylpyrazin-2-yl)(8-phenyl-1,3,4,5-tetrahydro-2H-pyrido[4,3-b]indol-2-yl)methanone]
12 to 25 µM | Cc1ccccc1-c1ccc2[nH]c3c(c2c1)CN(C(=O)c1cccc(Cl)c1)CC3 [Formula 26, (3-chlorophenyl)(8-(o-tolyl)-1,3,4,5-tetrahydro-2H-pyrido[4,3-b]indol-2-yl)methanone]
< 3 µM | O=C(c1ccccc1)N1CCc2[nH]c3ccc(-c4ccc([N+](=O)[O-])cc4)cc3c2C1 [Formula 71, (8-(4-nitrophenyl)-1,3,4,5-tetrahydro-2H-pyrido[4,3-b]indol-2-yl)(phenyl)methanone]
12 to 25 µM | Cc1ccc(C(=O)N2CCc3[nH]c4ccc(-c5ccc(C)nc5)cc4c3C2)cn1 [Formula 49, (6-methylpyridin-3-yl)(8-(6-methylpyridin-3-yl)-1,3,4,5-tetrahydro-2H-pyrido[4,3-b]indol-2-yl)methanone]
3 to 12 µM | Cc1ccccc1-c1ccc2[nH]c3c(c2c1)CN(C(=O)c1cccnc1)CC3 [Formula 20, Pyridin-3-yl(8-(o-tolyl)-1,3,4,5-tetrahydro-2H-pyrido[4,3-b]indol-2-yl)methanone]
< 3 µM | O=C(c1cccnc1)N1CCc2[nH]c3ccc(Nc4ccc(Cl)cc4)cc3c2C1 [Formula 32, (8-((4-chlorophenyl)amino)-1,3,4,5-tetrahydro-2H-pyrido[4,3-b]indol-2-yl)(pyridin-3-yl)methanone]
< 3 µM | COc1ccc(-c2ccc3[nH]c4c(c3c2)CN(C(=O)c2cccnc2)CC4)cc1 [Formula 63, (8-(4-Methoxyphenyl)-1,3,4,5-tetrahydro-2H-pyrido[4,3-b]indol-2-yl)(pyridin-3-yl)methanone]
12 to 25 µM | O=C(c1cccnc1)N1CCc2[nH]c3ccc(-c4cccnc4)cc3c2C1 [Formula 31, Pyridin-3-yl(8-(pyridin-3-yl)-1,3,4,5-tetrahydro-2H-pyrido[4,3-b]indol-2-yl)methanone]
12 to 25 µM | O=C(c1ccccc1)N1CCc2[nH]c3ccc(-c4ccc(C5CCCCC5)cc4)cc3c2C1 [Formula 66, (8-(4-Cyclohexylphenyl)-1,3,4,5-tetrahydro-2H-pyrido[4,3-b]indol-2-yl)(phenyl)methanone]
3 to 12 µM | O=C(c1nccs1)N1CCc2[nH]c3ccc(-c4ccccc4)cc3c2C1 [Formula 11, (8-phenyl-1,3,4,5-tetrahydro-2H-pyrido[4,3-b]indol-2-yl)(thiazol-2-yl)methanone]
12 to 25 µM | Cc1ccc(-c2ccc3[nH]c4c(c3c2)CN(C(=S)Nc2ccc(C#N)cc2)CC4)cc1 [Formula 77, N-(4-cyanophenyl)-8-(p-tolyl)-1,3,4,5-tetrahydro-2H-pyrido[4,3-b]indole-2-carbothioamide]
< 3 µM | Cc1ccc(-c2ccc3[nH]c4c(c3c2)CN(C(=O)c2ccc(C)nc2)CC4)cc1 [Formula 40, (6-methylpyridin-3-yl)(8-(p-tolyl)-1,3,4,5-tetrahydro-2H-pyrido[4,3-b]indol-2-yl)methanone]
< 3 µM | O=C(c1ccccc1)N1CCc2[nH]c3ccc(-c4ccc(F)cc4)cc3c2C1 [Formula 64, (8-(4-fluorophenyl)-1,3,4,5-tetrahydro-2H-pyrido[4,3-b]indol-2-yl)(phenyl)methanone]
12 to 25 µM | Cc1ccc(-c2ccc3[nH]c4c(c3c2)CN(C(=O)c2cccnc2)CC4)cn1 [Formula 48, (8-(6-methylpyridin-3-yl)-1,3,4,5-tetrahydro-2H-pyrido[4,3-b]indol-2-yl)(pyridin-3-yl)methanone]
